Reference: patent US11858935B1, “Pyrrolo[2,3-c][1,7]naphthyridine-2-carboxylic acid compounds as CK2 inhibitors” (KING FAISAL UNIVERSITY, priority 2023, dated 2024)

What was measured:
[1] = system: HL60 (leukemia); experiment: In vitro cytotoxic activity (MTT) assay, HL60; assay type: cell-based; details: Homo sapiens, HL-60; HL60 (leukemia) cells, exposed 96 hours; read-out: IC50, concentration eliciting 50% inhibition of cell proliferation
Procedure: (§1) Compounds 1-16 were screened for their in vitro cytotoxic activity utilizing a 3-(4,5-dimethyl-thiazol-2-yl)-2,5-diphenyltetrazolium bromide (MTT) assay against selected cancer human cell lines consisting of PC3 (prostate), HCT116 (colon), A375 (melanoma), H1299 (lung), MIAPaCa-2 (pancreas), HL60 (leukemia), MCF7 (breast), MDA-MB-231 (breast) (T. Mosmann, J. Immunol. Meth., 1983, 65, 55-63). The cells were cultured at 37° C. in RMPI1640 medium supplemented with 10% fetal bovine serum, 50 IU/mL penicillin, and 50 μg/mL streptomycin in a 5% CO2 incubator. All cells were sub-cultured 3 times/week by trypsinisation. Viable cells were seeded and allowed to adhere for 12 h before a test drug was added in 96-well plates at an initial density of 1.0×10^5 cells/mL. Tumor cell lines were separately exposed to various concentrations of the tested compounds followed by incubation at a temperature of 37° C. during 96 h inside a medium of fresh RMPI 1640. Cells were subsequently incubated at 37° C. using MTT at 0.5 mg/mL during 4 h. After removal of supernatant, formazan crystals were dissolved in isopropanol and the optical density was measured at 570 nm. CX-4945 was used as a positive control.

[2] = system: HCT116 (colon); experiment: In vitro cytotoxic activity (MTT) assay, HCT116; assay type: cell-based; details: Homo sapiens, HCT-116; HCT116 (colon) cells, exposed 96 hours; read-out: IC50, concentration eliciting 50% inhibition of cell proliferation
Procedure: as §1

[3] = system: H1299 (lung); experiment: In vitro cytotoxic activity (MTT) assay, H1299; assay type: cell-based; details: Homo sapiens, NCI-H1299; H1299 (lung) cells, exposed 96 hours; read-out: IC50, concentration eliciting 50% inhibition of cell proliferation
Procedure: as §1

[4] = system: MCF7 (breast); experiment: In vitro cytotoxic activity (MTT) assay, MCF7; assay type: cell-based; details: Homo sapiens; MCF7 (breast) cells, exposed 96 hours; read-out: IC50, concentration eliciting 50% inhibition of cell proliferation
Procedure: as §1

[5] = system: A375 (melanoma); experiment: In vitro cytotoxic activity (MTT) assay, A375; assay type: cell-based; details: Homo sapiens, A-375; A375 (melanoma) cells, exposed 96 hours; read-out: IC50, concentration eliciting 50% inhibition of cell proliferation
Procedure: as §1

[6] = system: PC3 (prostate); experiment: In vitro cytotoxic activity (MTT) assay, PC3; assay type: cell-based; details: Homo sapiens, Prostate cell; PC3 (prostate) cells, exposed 96 hours; read-out: IC50, concentration eliciting 50% inhibition of cell proliferation
Procedure: as §1

[7] = system: MDA-MB-231 (breast); experiment: In vitro cytotoxic activity (MTT) assay, MDA-MB-231; assay type: cell-based; details: Homo sapiens; MDA-MB-231 (breast) cells, exposed 96 hours; read-out: IC50, concentration eliciting 50% inhibition of cell proliferation
Procedure: as §1

[8] = system: MIAPaCa-2 (pancreas); experiment: In vitro cytotoxic activity (MTT) assay, MIAPaCa-2; assay type: cell-based; details: Homo sapiens, MIA PaCa-2; MIAPaCa-2 (pancreas) cells, exposed 96 hours; read-out: IC50, concentration eliciting 50% inhibition of cell proliferation
Procedure: as §1

[9] = molecular target: T1, recombinant human CK2 (RRββ-holoenzyme) (Homo sapiens, UniProt P68400); experiment: CK2 Kinase Assay (33P-ATP, substrate peptide RRRDDDSDDD); assay type: biochemical; details: final ATP concentration 15 μM, 10 min at 30° C.; read-out: protein kinase CK2 IC50
T1 construct: purchased Millipore
Procedure: CK2 Kinase Assay was conducted using the protocol as described in Pierre F. et al; J. Med. Chem. 2011, 54, 635-654. The tested compounds in aqueous solution were added at a volume of 10 μL to a reaction mixture comprising 10 μL of assay dilution buffer (ADB; 20 mM MOPS, pH 7.2, 25 mM β-glycerol phosphate, 5 mM EGTA, 1 mM sodium orthovanadate, and 1 mM dithiothreitol), 10 μL of substrate peptide (RRRDDDSDDD, dissolved in ADB at a concentration of 1 mM), 10 μL of recombinant human CK2 (RRββ-holoenzyme, 25 ng dissolved in ADB; Millipore). Reactions were initiated by the addition of 10 μL of ATP solution (90% 75 mM MgCl2, 75 μM ATP (final ATP concentration:15 μM) dissolved in ADB; 10% [γ-33P] ATP (stock 1 mCi/100 μL; 3000 Ci/mmol (Perkin-Elmer) and maintained for 10 min at 30° C. The reactions were quenched with 100 μL of 0.75% phosphoric acid and then transferred to and filtered through a phosphor cellulose filter plate (Millipore). After washing each well five times with 0.75% phosphoric acid, the plate was dried under vacuum for 5 min and, following the addition of 15 μL of scintillation fluid to each well, the residual radioactivity was measured using a Wallac […]. The IC50 values were derived from eight concentrations of test inhibitors.

T1 sequence (P68400 whole entry): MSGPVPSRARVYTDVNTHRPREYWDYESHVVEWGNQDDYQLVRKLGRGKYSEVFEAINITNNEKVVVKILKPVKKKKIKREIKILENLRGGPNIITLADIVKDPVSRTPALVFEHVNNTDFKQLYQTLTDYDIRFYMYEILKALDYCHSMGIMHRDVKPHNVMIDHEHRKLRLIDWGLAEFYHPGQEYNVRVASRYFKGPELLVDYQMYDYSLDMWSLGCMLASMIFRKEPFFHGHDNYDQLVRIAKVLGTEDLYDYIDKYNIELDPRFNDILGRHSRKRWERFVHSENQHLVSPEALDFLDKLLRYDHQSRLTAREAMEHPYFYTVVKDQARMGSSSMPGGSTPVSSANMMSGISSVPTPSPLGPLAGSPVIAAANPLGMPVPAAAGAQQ
T1 sequence (P67870 whole entry partner): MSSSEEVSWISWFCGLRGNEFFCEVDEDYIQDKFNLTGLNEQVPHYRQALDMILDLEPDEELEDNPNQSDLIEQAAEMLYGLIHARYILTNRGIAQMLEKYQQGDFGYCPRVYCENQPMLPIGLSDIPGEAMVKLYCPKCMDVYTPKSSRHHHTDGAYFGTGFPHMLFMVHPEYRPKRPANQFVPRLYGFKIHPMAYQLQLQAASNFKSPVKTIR

O=C(O)c1cc2c([nH]1)c(Nc1cccc(Cl)c1)nc1cnccc12 [Compound 1, 4-((3-chlorophenyl)amino)-3H-pyrrolo[2,3-c][1,7]naphthyridine-2-carboxylic acid]
IC50 [1]: 3.1 µM | IC50 [2]: 1.8 µM | IC50 [3]: 1.4 µM | IC50 [4]: 4.2 µM | IC50 [5]: 2.3 µM | IC50 [6]: 1.5 µM | IC50 [7]: 3.6 µM | IC50 [8]: 1.7 µM | IC50 [9]: 0.026 µM
